For assay [1], the system named is HeLa. Put plainly: ATP-based viability loss in HeLa cells – cell-based, CellTiter-Glo luminescence, cherry-pick samples, cytotoxicity control for MITF activator project, dose response (AID 540259). It is filed as functional. The conditions noted are these: Homo sapiens. In general terms: ATP-based viability assays read luminescence as a measure of living cells.

The nature of assay [2]: microbe, parasite or virus in culture. Type of assay: functional. The conditions noted are these: Mycobacterium tuberculosis.
Assay [3] concerns CHO. In words: CHO cell viability loss, potency – luminescence, cytotoxicity control for TLR9-MyD88 binding inhibitor project, dose response (AID 588339).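 Further: CHO cells stably coexpressing TLR9 and MyD88 fusions from primary screen; compound exposure lasted 48 hours before viability readout.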 Type of assay: functional, cell-based, hamster. The conditions noted are these: Cricetulus griseus.
The target in assay [4] is Heat shock protein HSP 90-alpha (Homo sapiens, UniProt P07900). Type of assay: functional, organism-based.
The subject of assay [5] is INS1. Put plainly: INS-1E survival protection against cytokine death – cell-based, luminescence, retest, dose response (AID 449756).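 Further: cell death triggered by IL-1 beta plus TNF-alpha plus IFN-gamma mixture; protective hits raise ATP signal compared with cytokine alone wells.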 Type of assay: functional. The conditions noted are these: Rattus norvegicus.
Assay [6] is described as follows: reduction of Shn3 3'UTR-driven luciferase in osteoblasts – cell-based, Clone20 osteoblasts, firefly luciferase, cherry-picked, dose response (AID 624132).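 Further: firefly luciferase luminescence from reporter carrying the Shn3 3'UTR in osteoblasts.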 It is filed as functional.
Assay [7] is described as follows: loss of viability in HepG2 cells – cell-based, CellTiter-Glo, cherry-picked, cytotoxicity control for Shn3 inhibitor project, dose response (AID 624134). It is filed as functional.
Assay [8] is described as follows: non-specific 3'UTR reporter inhibition in Clone20-Shn3RL – cell-based, Renilla luciferase, cherry-picked, counter-screen for Shn3 inhibitor project, dose response (AID 624133). It is filed as functional. (In general: The purpose of a counterscreen is to sort out artefacts and off-target activity.)
The target of assay [9] is Voltage-gated inwardly rectifying potassium channel KCNH2 (Homo sapiens, UniProt Q12809). The conditions noted are these: Potency.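 Further: confirmatory quantitative high-throughput screen measuring inhibition of hERG channel activity.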
Chain of Voltage-gated inwardly rectifying potassium channel KCNH2 (Q12809 whole entry): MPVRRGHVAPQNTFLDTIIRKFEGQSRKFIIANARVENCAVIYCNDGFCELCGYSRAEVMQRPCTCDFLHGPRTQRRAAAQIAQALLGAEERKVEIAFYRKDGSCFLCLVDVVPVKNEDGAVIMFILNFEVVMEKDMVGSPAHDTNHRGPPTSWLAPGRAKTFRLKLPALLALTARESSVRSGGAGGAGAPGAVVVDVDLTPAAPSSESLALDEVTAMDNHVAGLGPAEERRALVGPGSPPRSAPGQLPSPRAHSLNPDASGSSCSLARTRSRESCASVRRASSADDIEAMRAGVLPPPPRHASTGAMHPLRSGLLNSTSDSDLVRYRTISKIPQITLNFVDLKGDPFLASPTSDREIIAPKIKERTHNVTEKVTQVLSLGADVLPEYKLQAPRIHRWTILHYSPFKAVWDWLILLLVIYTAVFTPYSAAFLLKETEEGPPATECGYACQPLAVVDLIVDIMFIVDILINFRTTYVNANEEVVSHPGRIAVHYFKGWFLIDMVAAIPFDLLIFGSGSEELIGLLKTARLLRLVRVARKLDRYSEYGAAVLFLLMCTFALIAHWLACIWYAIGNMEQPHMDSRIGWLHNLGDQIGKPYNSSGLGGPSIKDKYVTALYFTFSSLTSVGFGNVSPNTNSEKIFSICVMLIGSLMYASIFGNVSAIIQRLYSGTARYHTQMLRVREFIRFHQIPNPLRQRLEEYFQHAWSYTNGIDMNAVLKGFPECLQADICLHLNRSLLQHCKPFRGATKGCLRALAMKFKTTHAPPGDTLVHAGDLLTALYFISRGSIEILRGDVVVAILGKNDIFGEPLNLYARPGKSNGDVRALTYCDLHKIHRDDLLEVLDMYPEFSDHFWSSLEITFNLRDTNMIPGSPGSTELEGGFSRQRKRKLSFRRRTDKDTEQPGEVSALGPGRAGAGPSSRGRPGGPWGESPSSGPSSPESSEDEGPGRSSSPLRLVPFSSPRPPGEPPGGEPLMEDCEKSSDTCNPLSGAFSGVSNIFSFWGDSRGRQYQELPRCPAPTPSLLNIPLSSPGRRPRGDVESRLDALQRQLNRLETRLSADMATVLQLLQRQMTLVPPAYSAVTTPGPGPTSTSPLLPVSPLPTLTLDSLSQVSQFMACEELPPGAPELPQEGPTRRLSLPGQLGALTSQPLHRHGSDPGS
For assay [10], the target named is T1, Mannose-6-phosphate isomerase (Homo sapiens, UniProt P34949).
T1 sequence (P34949 whole entry): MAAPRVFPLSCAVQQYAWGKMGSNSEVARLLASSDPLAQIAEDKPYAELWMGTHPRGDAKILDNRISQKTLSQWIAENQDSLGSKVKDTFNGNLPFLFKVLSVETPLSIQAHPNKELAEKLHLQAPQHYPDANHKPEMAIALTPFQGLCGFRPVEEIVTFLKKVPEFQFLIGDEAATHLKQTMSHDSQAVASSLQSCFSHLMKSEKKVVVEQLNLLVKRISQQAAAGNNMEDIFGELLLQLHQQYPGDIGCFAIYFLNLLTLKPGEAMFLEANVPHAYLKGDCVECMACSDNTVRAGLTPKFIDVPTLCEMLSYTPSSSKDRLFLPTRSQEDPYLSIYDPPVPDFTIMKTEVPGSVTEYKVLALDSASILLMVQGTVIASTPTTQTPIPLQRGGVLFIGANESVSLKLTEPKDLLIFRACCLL
In words: phosphomannose isomerase inhibition – biochemical, fluorescence intensity, confirmation (AID 1535).

Assay [11] deals with T2, Phosphomannomutase 2 (Homo sapiens, UniProt O15305).
T2 sequence (O15305 whole entry): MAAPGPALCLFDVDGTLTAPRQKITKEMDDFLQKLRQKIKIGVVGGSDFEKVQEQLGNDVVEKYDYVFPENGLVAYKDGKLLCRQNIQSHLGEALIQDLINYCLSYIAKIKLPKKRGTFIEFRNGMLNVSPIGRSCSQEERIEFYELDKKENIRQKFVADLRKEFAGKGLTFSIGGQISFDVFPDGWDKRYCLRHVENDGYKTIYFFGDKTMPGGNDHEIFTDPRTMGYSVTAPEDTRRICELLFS
Put plainly: Counter screen SAR assay for PMM2 inhibitors via a fluorescence intensity assay. [Related pubchem assays (depositor defined):AID1545, AID1574].

Assay [12] concerns the target T1, Mannose-6-phosphate isomerase. Put plainly: MPI inhibition at elevated mannose 6-phosphate – biochemical, fluorescence intensity, high mannose 6-phosphate, primary screen (AID 1220).
Assay [13] deals with Eukaryotic translation initiation factor 4E (Mus musculus, UniProt P63073). In words: blockers of eIF4G binding by eIF4E – biochemical, TR-FRET, dose response (AID 855).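 Further: potency for disrupting eIF4E binding to eIF4GI seen as loss of FRET.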 It is filed as functional. A general note: Time-resolved FRET reads energy transfer from a long-lived donor to a nearby acceptor.
Chain of Eukaryotic translation initiation factor 4E (P63073 whole entry): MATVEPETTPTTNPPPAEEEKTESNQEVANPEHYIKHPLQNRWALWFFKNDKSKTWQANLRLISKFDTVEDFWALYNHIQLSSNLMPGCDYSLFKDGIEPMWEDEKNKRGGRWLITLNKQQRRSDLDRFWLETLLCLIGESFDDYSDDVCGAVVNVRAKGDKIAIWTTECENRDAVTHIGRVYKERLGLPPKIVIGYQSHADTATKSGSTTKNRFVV
In assay [14] the target is Dual specificity protein phosphatase 3 (Homo sapiens, UniProt P51452). Put plainly: SAR VHR1 Fluorescent Assay for In Vitro dose response studies Set 2. [Related pubchem assays (depositor defined):AID1654, AID1661, AID1878]. It is filed as functional.
Chain of Dual specificity protein phosphatase 3 (P51452 whole entry): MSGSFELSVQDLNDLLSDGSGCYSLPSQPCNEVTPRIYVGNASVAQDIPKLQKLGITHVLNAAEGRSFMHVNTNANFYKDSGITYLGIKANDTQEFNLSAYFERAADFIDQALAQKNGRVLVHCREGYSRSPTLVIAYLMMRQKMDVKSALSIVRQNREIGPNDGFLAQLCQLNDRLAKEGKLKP
Assay [15] addresses T3, Dual specificity protein phosphatase 6 (Rattus norvegicus, UniProt Q64346).
T3 sequence (Q64346 whole entry): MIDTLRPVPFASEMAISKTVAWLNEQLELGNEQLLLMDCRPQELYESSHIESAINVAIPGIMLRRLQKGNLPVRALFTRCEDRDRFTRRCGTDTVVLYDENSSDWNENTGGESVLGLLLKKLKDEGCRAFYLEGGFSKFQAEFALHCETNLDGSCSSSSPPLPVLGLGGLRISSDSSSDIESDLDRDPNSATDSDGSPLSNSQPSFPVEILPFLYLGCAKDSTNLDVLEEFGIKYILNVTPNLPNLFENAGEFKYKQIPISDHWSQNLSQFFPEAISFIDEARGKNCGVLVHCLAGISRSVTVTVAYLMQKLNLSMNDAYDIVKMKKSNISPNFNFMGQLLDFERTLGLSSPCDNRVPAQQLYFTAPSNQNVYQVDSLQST
It is filed as functional.

Assay [16] addresses T4, Hexokinase-1 (Homo sapiens, UniProt P19367).
T4 sequence (P19367 whole entry): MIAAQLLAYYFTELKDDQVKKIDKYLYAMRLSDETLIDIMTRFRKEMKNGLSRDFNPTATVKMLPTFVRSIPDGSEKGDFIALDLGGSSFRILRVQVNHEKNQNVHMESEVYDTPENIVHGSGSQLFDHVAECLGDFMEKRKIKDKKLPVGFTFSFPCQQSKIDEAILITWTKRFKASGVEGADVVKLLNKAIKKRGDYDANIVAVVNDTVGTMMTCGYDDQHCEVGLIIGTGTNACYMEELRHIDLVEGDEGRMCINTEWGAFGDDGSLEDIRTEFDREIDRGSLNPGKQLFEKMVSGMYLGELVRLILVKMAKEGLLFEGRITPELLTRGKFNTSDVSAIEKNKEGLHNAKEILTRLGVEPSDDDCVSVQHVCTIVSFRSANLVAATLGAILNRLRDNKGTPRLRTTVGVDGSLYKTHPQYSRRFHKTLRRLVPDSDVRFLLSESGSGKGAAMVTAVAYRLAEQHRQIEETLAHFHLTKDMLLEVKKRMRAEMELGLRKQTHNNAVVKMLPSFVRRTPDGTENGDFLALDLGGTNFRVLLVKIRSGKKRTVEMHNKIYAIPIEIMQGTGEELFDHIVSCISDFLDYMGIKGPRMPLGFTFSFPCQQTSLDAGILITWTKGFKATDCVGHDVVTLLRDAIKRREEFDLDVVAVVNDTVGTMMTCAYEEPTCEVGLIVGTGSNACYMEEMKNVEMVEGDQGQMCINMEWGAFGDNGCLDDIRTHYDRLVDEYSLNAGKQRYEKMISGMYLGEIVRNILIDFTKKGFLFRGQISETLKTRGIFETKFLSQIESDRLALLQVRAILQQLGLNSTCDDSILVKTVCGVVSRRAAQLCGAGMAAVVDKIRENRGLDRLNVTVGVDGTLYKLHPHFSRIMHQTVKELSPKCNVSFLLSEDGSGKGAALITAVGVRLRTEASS
Put plainly: SAR analysis of small molecule inhibitors of hexokinase domain containing I (HKDC1) in the hexokinase 1 selectivity assay. [Related pubchem assays (depositor defined):AID493160, AID493190]. It is filed as functional.

The target of assay [17] is T5, Hexokinase HKDC1 (Homo sapiens, UniProt Q2TB90).
T5 sequence (Q2TB90 whole entry): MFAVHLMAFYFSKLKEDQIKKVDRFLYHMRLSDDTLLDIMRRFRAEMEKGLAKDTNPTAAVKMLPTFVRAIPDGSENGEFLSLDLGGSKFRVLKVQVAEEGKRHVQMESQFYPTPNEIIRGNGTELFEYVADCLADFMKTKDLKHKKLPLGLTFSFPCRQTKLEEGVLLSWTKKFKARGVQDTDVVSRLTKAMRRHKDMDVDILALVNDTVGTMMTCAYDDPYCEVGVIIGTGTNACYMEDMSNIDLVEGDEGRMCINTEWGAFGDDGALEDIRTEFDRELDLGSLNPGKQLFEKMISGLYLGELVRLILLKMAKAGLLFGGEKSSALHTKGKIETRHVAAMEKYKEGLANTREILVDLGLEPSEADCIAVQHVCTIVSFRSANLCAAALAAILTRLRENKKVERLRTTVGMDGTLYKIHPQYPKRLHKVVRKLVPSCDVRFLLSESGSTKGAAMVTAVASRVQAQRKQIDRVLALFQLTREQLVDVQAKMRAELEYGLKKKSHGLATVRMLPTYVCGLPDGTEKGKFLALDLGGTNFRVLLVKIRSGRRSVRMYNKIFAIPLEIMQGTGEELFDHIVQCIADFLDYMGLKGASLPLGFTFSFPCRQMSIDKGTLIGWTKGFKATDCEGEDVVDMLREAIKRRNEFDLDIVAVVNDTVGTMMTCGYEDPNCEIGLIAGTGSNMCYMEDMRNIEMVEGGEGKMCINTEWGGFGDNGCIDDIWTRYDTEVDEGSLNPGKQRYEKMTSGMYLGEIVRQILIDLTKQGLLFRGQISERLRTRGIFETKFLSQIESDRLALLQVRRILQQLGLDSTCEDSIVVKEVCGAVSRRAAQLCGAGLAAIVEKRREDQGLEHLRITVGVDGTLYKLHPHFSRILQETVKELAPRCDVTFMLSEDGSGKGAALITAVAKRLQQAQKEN
Put plainly: SAR analysis of small molecule inhibitors of hexokinase domain containing I (HKDC1). [Related pubchem assays (depositor defined):AID493160, AID493190]. Type of assay: functional.

Assay [18] relates to Candida albicans. In words: fluconazole-resistant Candida strain growth inhibitors – CaCi-8 strain, dry powder, set 4, dose response (AID 488950). It is filed as functional, organism-based.
The subject of assay [19] is Candida albicans. In words: C. albicans growth inhibition with fluconazole – CaCi-2 strain, Alamar Blue, dry powder, set 4, dose response (AID 488943). It is filed as functional, organism-based.
Assay [20] has as its system Candida albicans. In words: resistant Candida growth with fluconazole co-treatment – CaCi-8 strain, Alamar Blue, dry powder, set 2, dose response (AID 488909). Type of assay: functional, organism-based.
The target in assay [21] is Glyceraldehyde-3-phosphate dehydrogenase (Homo sapiens, UniProt P04406).
Chain of Glyceraldehyde-3-phosphate dehydrogenase (P04406 whole entry): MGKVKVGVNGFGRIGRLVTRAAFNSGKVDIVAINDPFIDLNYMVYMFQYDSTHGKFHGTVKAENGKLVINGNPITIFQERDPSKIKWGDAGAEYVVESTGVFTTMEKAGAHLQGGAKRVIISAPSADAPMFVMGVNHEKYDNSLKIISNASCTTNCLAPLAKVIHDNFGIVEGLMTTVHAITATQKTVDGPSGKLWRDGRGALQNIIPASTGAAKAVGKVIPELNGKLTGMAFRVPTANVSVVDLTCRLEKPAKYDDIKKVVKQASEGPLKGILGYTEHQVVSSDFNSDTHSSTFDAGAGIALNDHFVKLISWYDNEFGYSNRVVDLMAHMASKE
Assay [22] concerns the target Alkaline phosphatase, placental type (Homo sapiens, UniProt P05187). In words: human placental alkaline phosphatase inhibition – biochemical, luminescence, confirmation (AID 1512). Type of assay: functional.
In assay [23] the target is Nonstructural protein 1 (Influenza A virus, UniProt Q194T2). Type of assay: functional, Influenza A virus (A/California/07/2009(H1N1)).
Chain of Nonstructural protein 1 (Q194T2 whole entry): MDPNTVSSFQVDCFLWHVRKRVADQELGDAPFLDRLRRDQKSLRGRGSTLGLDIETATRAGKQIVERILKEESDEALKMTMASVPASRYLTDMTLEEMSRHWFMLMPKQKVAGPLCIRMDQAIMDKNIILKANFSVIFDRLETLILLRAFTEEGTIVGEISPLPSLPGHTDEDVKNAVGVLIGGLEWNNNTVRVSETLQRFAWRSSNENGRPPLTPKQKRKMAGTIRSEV
Assay [24] is described as follows: cells. It is filed as functional.

“And” between values parts separate entries of the source, which are not always exact repeats. Equal values may be shown once. The source made the active and inactive calls.

The results in this text go back to ChEMBL document CHEMBL1201862, “PubChem BioAssay data set” (2004).

Chain of Alkaline phosphatase, placental type (P05187 whole entry): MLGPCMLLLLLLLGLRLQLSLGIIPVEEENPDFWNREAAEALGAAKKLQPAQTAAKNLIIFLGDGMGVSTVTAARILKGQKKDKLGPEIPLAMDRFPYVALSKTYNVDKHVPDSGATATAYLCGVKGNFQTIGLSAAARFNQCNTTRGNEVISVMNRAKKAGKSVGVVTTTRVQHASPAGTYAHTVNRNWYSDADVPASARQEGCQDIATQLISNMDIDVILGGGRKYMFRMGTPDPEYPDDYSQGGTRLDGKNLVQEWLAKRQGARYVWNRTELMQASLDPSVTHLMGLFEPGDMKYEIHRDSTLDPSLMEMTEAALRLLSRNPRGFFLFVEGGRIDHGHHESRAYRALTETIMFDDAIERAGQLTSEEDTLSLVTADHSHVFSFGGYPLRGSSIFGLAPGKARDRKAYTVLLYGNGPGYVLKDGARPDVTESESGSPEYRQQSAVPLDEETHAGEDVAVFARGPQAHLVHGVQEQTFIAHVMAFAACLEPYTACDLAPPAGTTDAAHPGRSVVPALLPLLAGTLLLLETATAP

A word on the AC50: it is the concentration at which the activity in the assay is half-maximal. `COc1nc(C)ccc1-c1noc(-c2ccncc2)n1`: the AC50 in assay [1] was 40 µM (active).

For the molecule `N=C(NOC(=O)C12CC3CC(CC(C3)C1)C2)c1ccccn1`, in [1], the concentration at half-maximal activity (AC50) was 27.5 µM (active).

Usually IC50 stands for the concentration that inhibits the measured activity by half. `Cc1ccc(-n2c(Cl)c(Cl)nc(Cl)c2=O)cc1`: the CC50 in assay [2] is 39.1 µM (active). The IC50 in assay [3] is 1.39 µM (active). In addition, the AC50 in assay [4] was 1.38 µM (active); in assay [5], 4.43 µM (active); in assay [6] it was 1.77 µM (active); in assay [7], 8.89 µM (active); in assay [8], 3.58 µM (active).

With `Cc1ccccc1C(N)=O`, the AC50 in assay [9] was 35.5 µM (inconclusive).

Regarding `Cc1nn(-c2ccccc2)c(S)c1C=Nc1cccc([N+](=O)[O-])c1`, the figures for the IC50 in [10] and in [11] were 31.1 µM (active) and > 100 µM (inactive), respectively.

`Clc1ccc(/N=c2\ssnc2Cl)cc1`: the IC50 was > 50 µM (not active) in assay [12], 12.5 µM (active) in [10], > 100 µM (inactive) in assay [11] and 28.2 µM (active) in [13]. The AC50 in [4] was 8.4 µM (active).

Take `NS(=O)(=O)c1cc(C(=O)NC2CCOc3ccccc32)ccc1Cl` (centres undefined): the IC50 in assay [14] and in assay [15] was > 100 µM (inactive) each time.

In the case of `O=c1c2ccccc2nc(/C=C/c2cccnc2)n1Cc1cccc(Cl)c1`, the IC50 in assay [16] and in assay [17] was > 80 µM (inactive) each time.

Consider `Cc1cc(N2CCN(C(=O)c3ccc(Cl)cc3)CC2)c2ccc(F)cc2n1`, for which the AC50 in assay [18] is 14.4 µM (active); in [19] it was 15.8 µM (active); in [20], 49.3 µM (active).

On to `c1ccc(-c2nnc(-c3ccccn3)[nH]2)nc1`, for which the IC50 in [21] was > 100 µM (not active); in [22] it was > 100 µM (inactive); in [23], 2.78 µM (active) and 2.89 µM (active); in [24], 2.02 µM (active).

`Cc1ccccc1N1C(=O)c2cc(S(N)(=O)=O)c(Cl)cc2NC1C` (centres undefined) [METOLAZONE]: in assay [9], the AC50 is 0.112 µM (inconclusive).
